How the values were obtained:
[1] = Volume of distribution at steady state in monkey after iv administration; assay type: ADME, organism-based; settings: macaca, in vivo, read-out: Vdss
[2] = Clearance in dog after iv administration; assay type: ADME, organism-based, Canis lupus familiaris; settings: in vivo
[3] = Clearance in human after iv administration; assay type: ADME, organism-based; settings: in vivo
[4] = Clearance in monkey after iv administration; assay type: ADME, organism-based; settings: macaca, in vivo
[5] = Volume of distribution at steady state in human after iv administration; assay type: ADME, organism-based; settings: in vivo, read-out: Vdss
[6] = Clearance in rat after iv administration; assay type: ADME, organism-based; settings: in vivo
[7] = Volume of distribution at steady state in dog after iv administration; assay type: ADME, organism-based, Canis lupus familiaris; settings: in vivo, read-out: Vdss
[8] = Volume of distribution at steady state in rat after iv administration; assay type: ADME, organism-based; settings: in vivo

Row | Structure (SMILES) | Vd [1] | clearance [2] | clearance [3] | clearance [4] | Vd [5] | clearance [6] | Vd [7] | Vdss [8]
1 | Cc1nc(=O)c(C#N)c(NCc2cccnc2)[nH]1 [PELRINONE] | 0.85 L/kg | 11 mL/min/kg | 4 mL/min/kg | 13 mL/min/kg | 0.35 L/kg | 28 mL/min/kg | 1.2 L/kg | 3.3 L/kg
2 | O=[N+]([O-])O[C@@H]1CO[C@H]2[C@@H]1OC[C@@H]2O [ISOSORBIDE MONONITRATE] | 0.5 L/kg | 6.9 mL/min/kg | 1.7 mL/min/kg | 11 mL/min/kg | 0.6 L/kg | 2.5 mL/min/kg | 0.8 L/kg | 0.97 L/kg
3 | C[C@@H]1[C@H](O)[C@@H](C)/C=C/C=C/C=C/C=C/C=C/C=C/C=C/[C@H](O[C@@H]2O[C@H](C)[C@@H](O)[C@H](N)[C@@H]2O)C[C@@H]2O[C@](O)(C[C@@H](O)C[C@@H](O)[C@H](O)CC[C@@H](O)C[C@@H](O)CC(=O)O[C@H]1C)C[C@H](O)[C@H]2C(=O)O [AMPHOTERICIN B] | 0.2 L/kg | 0.1 mL/min/kg | 0.4 mL/min/kg | 0.1 mL/min/kg | 4 L/kg | 2 mL/min/kg | 0.5 L/kg | 2.3 L/kg
4 | C[C@@H](O)[C@H]1C(=O)N2C(C(=O)O)=C(S[C@@H]3CN[C@H](C(=O)N(C)C)C3)[C@H](C)[C@H]12 [MEROPENEM] | 0.3 L/kg | 4 mL/min/kg | 4 mL/min/kg | 7 mL/min/kg | 0.3 L/kg | 47 mL/min/kg | 0.25 L/kg | 0.3 L/kg
5 | O=C(O)C[C@H](NC(=O)CP(=O)(O)O)C(=O)O [PALA] | 0.35 L/kg | 7 mL/min/kg | 0.8 mL/min/kg | 3.7 mL/min/kg | 0.35 L/kg | 53 mL/min/kg | 0.6 L/kg | 4.5 L/kg
6 | c1ccc(C2(N3CCCCC3)CCCCC2)cc1 [PHENCYCLIDINE] | 7.3 L/kg | 50 mL/min/kg | 4.9 mL/min/kg | 37 mL/min/kg | 6.2 L/kg | 122 mL/min/kg | 17 L/kg | 23 L/kg
7 | O=P(O)(O)C(Sc1ccc(Cl)cc1)P(=O)(O)O [TILUDRONIC ACID] | 7 L/kg | 0.5 mL/min/kg | 0.3 mL/min/kg | 0.83 mL/min/kg | 1 L/kg | 3.3 mL/min/kg | 3 L/kg | 15 L/kg
8 | NC(=O)c1cc[n+](COC[n+]2ccccc2/C=N/O)cc1 [HI-6] | 0.34 L/kg | 3.7 mL/min/kg | 3.2 mL/min/kg | 8.6 mL/min/kg | 0.39 L/kg | 9.8 mL/min/kg | 0.26 L/kg | 0.3 L/kg
9 | N[C@H](C(=O)O)[C@@H]1CC(Cl)=NO1 [ACIVICIN] | 0.56 L/kg | 1.3 mL/min/kg | 0.78 mL/min/kg | 3.3 mL/min/kg | 0.58 L/kg | 5.2 mL/min/kg | 0.5 L/kg | 0.65 L/kg
10 | Cc1cc(=O)n(-c2ccccc2)n1C [ANTIPYRINE] | 0.74 L/kg | 5.5 mL/min/kg | 0.66 mL/min/kg | 4.4 mL/min/kg | 0.87 L/kg | 10 mL/min/kg | 0.62 L/kg | 0.97 L/kg
11 | C[C@@H](O)[C@H]1C(=O)N2C(C(=O)O)=C(COC(N)=O)S[C@H]12 | 0.15 L/kg | 7.7 mL/min/kg | 7.2 mL/min/kg | 4.7 mL/min/kg | 0.25 L/kg | 16 mL/min/kg | 0.23 L/kg | 0.05 L/kg
12 | O=C(OC1C[C@@H]2CC3C[C@@H](C1)N2CC3O)c1c[nH]c2ccccc12 (some centres undefined) | 28 L/kg | 27 mL/min/kg | 22 mL/min/kg | 77 mL/min/kg | 11 L/kg | 94 mL/min/kg | 9.6 L/kg | 15 L/kg
13 | CCCCCNC(=O)c1coc([C@H]2[C@@H](Cc3ccccc3CCC(=O)O)[C@@H]3CC[C@H]2O3)n1 [IFETROBAN] | 5.5 L/kg | 65 mL/min/kg | 6.4 mL/min/kg | 19 mL/min/kg | 4.4 L/kg | 88 mL/min/kg | 11 L/kg | 2.8 L/kg
14 | Nc1nc(/C(=N/O)C(=O)N[C@@H]2C(=O)N3C(C(=O)O)=C(/C=C4\CCN(CC(F)(F)F)C4=O)CS[C@H]23)cs1 [RO 25-6833] | 0.12 L/kg | 2.7 mL/min/kg | 0.38 mL/min/kg | 0.78 mL/min/kg | 0.12 L/kg | 0.95 mL/min/kg | 0.24 L/kg | 0.16 L/kg
15 | CC[C@]1(O)C[C@@H]2CN(CCc3c([nH]c4ccccc34)[C@@](C(=O)OC)(c3cc4c(cc3OC)N(C)[C@H]3[C@@](O)(C(=O)OC)[C@H](OC(C)=O)[C@]5(CC)C=CCN6CC[C@]43[C@@H]65)C2)C1 [VINBLASTINE] | 1.5 L/kg | 22 mL/min/kg | 12 mL/min/kg | 7 mL/min/kg | 24 L/kg | 25 mL/min/kg | 2.3 L/kg | 12 L/kg
16 | CC1=NC(=O)C(CCN(C(C)C)C(C)C)(c2ccccc2)C2CCCCN12 (centres undefined) [ACTISOMIDE] | 1.6 L/kg | 9 mL/min/kg | 6.8 mL/min/kg | 16.4 mL/min/kg | 0.58 L/kg | 9.8 mL/min/kg | 1.1 L/kg | 1.1 L/kg
17 | CC1CCCC(C)N1CCCC(O)(c1ccccc1)c1ccccn1 (centres undefined) [PIRMENOL] | 1.4 L/kg | 6 mL/min/kg | 2.5 mL/min/kg | 5 mL/min/kg | 1.3 L/kg | 23 mL/min/kg | 3.3 L/kg | 12 L/kg
18 | C[C@@H](O)[C@H]1C(=O)N2C(C(=O)[O-])=C(SC3Cn4cnc[n+]4C3)[C@H](C)[C@H]12 (some centres undefined) [BIAPENEM] | 0.23 L/kg | 6.2 mL/min/kg | 2.7 mL/min/kg | 5.3 mL/min/kg | 0.25 L/kg | 16 mL/min/kg | 0.28 L/kg | 0.24 L/kg
19 | CO[C@@]1(NC(=O)C2SC(=C(C(N)=O)C(=O)O)S2)C(=O)N2C(C(=O)O)=C(CSc3nnnn3C)CS[C@@H]21 (some centres undefined) [CEFOTETAN] | 0.17 L/kg | 4 mL/min/kg | 0.5 mL/min/kg | 1.7 mL/min/kg | 0.13 L/kg | 13 mL/min/kg | 0.25 L/kg | 0.25 L/kg
20 | CN(C)CCCC1(c2ccc(F)cc2)OCc2cc(C#N)ccc21 (centres undefined) [CITALOPRAM] | 10 L/kg | 14 mL/min/kg | 5 mL/min/kg | 39 mL/min/kg | 14 L/kg | 82 mL/min/kg | 10 L/kg | 21 L/kg
21 | NC1(C(=O)O)CC1 [1-Aminocyclopropane carboxylic acid] | 0.72 L/kg | 0.4 mL/min/kg | 1.5 mL/min/kg | 3.1 mL/min/kg | 0.73 L/kg | 3.2 mL/min/kg | 0.7 L/kg | 0.64 L/kg
22 | CC(C)N(CCC(C(N)=O)(c1ccccc1)c1ccccn1)C(C)C (centres undefined) [DISOPYRAMIDE] | 2 L/kg | 29 mL/min/kg | 2.4 mL/min/kg | 19 mL/min/kg | 0.78 L/kg | 34 mL/min/kg | 2.3 L/kg | 6.2 L/kg
23 | CO[C@@]1(NC(=O)CSCC#N)C(=O)N2C(C(=O)O)=C(CSc3nnnn3C)CS[C@@H]21 [CEFMETAZOLE] | 0.14 L/kg | 5.3 mL/min/kg | 1.8 mL/min/kg | 3.8 mL/min/kg | 0.14 L/kg | 40 mL/min/kg | 0.24 L/kg | 0.49 L/kg

From ChEMBL document CHEMBL1614629, “Extrapolation of human pharmacokinetic parameters from rat, dog, and monkey data: Molecular properties associated with extrapolative success or failure” (J Pharm Sci, 2005)
